Experimental data: US11302422B2, “Methods and systems for identifying a drug mechanism of action using network dysregulation” (THE TRUSTEES OF COLUMBIA UNIVERSITY IN THE CITY OF NEW YORK, priority 2014, dated 2022)
Entries after “also recorded” stand apart in the source; their conditions may differ.

Legend:
U-2932 cells [1] = experiment: Glutathione (GSH) level in treated cells; format: cell-based; conditions: 1 mM, 24 hrs, versus DMSO
Procedure: U-2932 cells were seeded in 10 cm dish (2×10^6/dish) and grown at 37° C. for 16 hrs. Cells were treated with vehicle (0.4% DMSO), 1 mM sulfasalazine (24 hr IC50) or 1 mM altretamine (double the 24 hr IC50), and incubated for 24 hrs. Cells were then harvested, pelleted, washed once with 400 μl ice-cold PBS containing 1 mM EDTA and sonicated. After the debris was pelleted and removed, both oxidized and reduced glutathione in 120 μL of sample was quantified in technical triplicate using QuantiChrome glutathione assay kit (BioAssay Sytems). The glutathione quantity was normalized to protein concentration measured with Bradford assay (Bio-Rad).

U-2932 cells [2] = experiment: Cell viability, 24 hr IC50; format: cell-based; conditions: Homo sapiens, U2932
Procedure: Compounds were selected based on their activity in a primary screen of FDA-approved, late-stage experimental, and tool compounds. OCI-LY3, OCI-LY7 and U-2932 cells were seeded in white, tissue culture-treated 96-well plates at a density of 5×10^4 cells per well in 100 μL total volume using the Janus automated liquid handling system (Perkin Elmer Inc.). After 12 hrs of incubation at 37° C. the plates were allowed to cool to room temperature prior to compound addition via the Janus. Compounds were transferred as 1 μL of DMSO stock solutions into the assay plates (plate based triplication), which were subsequently placed on an orbital shaker for 5 minutes and then placed back in the incubator. […] Plates were shaken 5 minutes on an orbital shaker before data acquisition in an Envision (PerkinElmer Inc.) (0.5 second read time, enhanced luminescence). IC20 values were determined using IDBS Activity Base utilizing a four parameter fit model.
U-2932 cells were seeded in 10 cm dish (2×10^6/dish) and grown at 37° C. for 16 hrs. […] After the debris was pelleted and removed, both oxidized and reduced glutathione in 120 μL of sample was quantified in technical triplicate using QuantiChrome glutathione assay kit (BioAssay Sytems). The glutathione quantity was normalized to protein concentration measured with Bradford assay (Bio-Rad).

U-2932 cells [3] = experiment: Lipid ROS by C11-BODIPY staining and flow cytometry; format: cell-based; conditions: BODIPY-C11, versus DMSO
Procedure: U-2932 cells (2×10^5) were seeded in 6-well plates and incubated at 37° C. for 16 hrs. Cells were treated with test compounds for the indicated time, then harvested, pelleted and washed once with PBS. For lipid ROS detections, cells were re-suspended with Hanks Balanced Salt Solution (HBSS, Life Technologies) containing C11-BODIPY (581/591) (2 μM) (Life Technologies) and incubated for 10 minutes at 37° C. Cells were then pelleted, re-suspended in 500 μL HBSS, strained through […] cell strainer (BD Falcon), and analyzed using BD Accuri C6 flow cytometer (BD Biosciences). C11-BODIPY signal was measured using FL1 channel. Experiments were done in biological triplicates, and a representative result was shown.

GPX4 = target: T1, GPX4 (Homo sapiens, UniProt P36969); experiment: LC-MS based GPX4 assay (PC-OOH reduction) in lysates of treated cells; format: cell-based; conditions: lysates of altretamine treated U-2932 cells versus untreated lysate
T1 construct: endogenous in cells; host or cells: U-2932 cells (cleared whole-cell lysate)
T1 sequence (P36969 1-197): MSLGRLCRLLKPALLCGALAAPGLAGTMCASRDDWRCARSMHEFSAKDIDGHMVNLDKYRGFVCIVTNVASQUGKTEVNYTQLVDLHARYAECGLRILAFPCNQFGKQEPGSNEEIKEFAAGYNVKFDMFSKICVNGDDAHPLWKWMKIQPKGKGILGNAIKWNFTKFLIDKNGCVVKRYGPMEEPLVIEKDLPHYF
Procedure: GPX4 enzymatic activity assay was performed as follows. Briefly, 1×10^6 cells were re-suspended in the cell lysis buffer. Sonication was used to make cell lysates followed by centrifugation at 14,000 rpm for 10 minutes. Protein concentration of the cleared cell lysates was determined using a Bradford protein assay (Bio-Rad). Two hundred micrograms of cellular proteins was mixed with phosphatidyl choline hydroperoxide (PC—OOH), the GPX4 specific substrate, and reduced glutathione, a GPX4 cofactor. The mixture was incubated at 37° C. for 30 minutes followed by lipid extraction using a chloroform:methanol (2:1) solution. The lipid extract was evaporated using a rotary evaporator, and re-dissolved in 100% ethanol before injecting into LC-MS instrument for PC-OOH quantitation.

U-2-OS cells [4] = experiment: Vincristine dose-response (alamar Blue growth inhibition) after siRNA-mediated gene silencing; format: cell-based
Procedure: Small interfering RNA (siRNA) targeting each specified gene and siControl SMARTpools were obtained from Dharmacon Technologies (see Table 3). Reverse transfection was performed by preparing a solution of 1 mL of Opti-MEM (Invitrogen), […], of Lipofectamine-RNAiMAX reagent (Invitrogen) and 1.25 μL of 10 μM RNAi solution (final working concentration is […]), and incubating the mixture (1 mL/well) in a 6-well dish for 20 minutes at 37° C. U-2-OS cells were detached from culture flask, and re-suspended in 2× serum-containing media at a density of 4×10^5 cells/mL. One mL of cell suspension was transferred to each well containing the transfection mixture, and the 6-well plate was returned to culture incubator. After 48 hrs, cells were detached and reverse transfected again using the same procedures. After 48 hrs, cells were trypsinized and reseeded into 384-well format to determine sensitivity against vincristine. […] Plates were incubated further for 16 hrs to allow reduction of alamar Blue, which results in the generation of red fluorescence. The fluorescence intensity was determined using a Victor 3 plate reader (Perkin Elmer, Inc.), and used to calculated percent growth inhibition.

U-2-OS cells [5] = experiment: Microtubule network visualised with anti-tubulin antibody; format: cell-based; conditions: vincristine 4 nM for 24 hrs, compared to DMSO / non-specific siRNA
Procedure: Cells were grown on coverslips to ˜50% confluency and treated with compounds for 24 hrs. Cells were fixed with 3.7% formaldehyde solution in PBS for 15-30 minutes followed by washing with PBS 5 times. Cell membrane was permeabilized with 0.2% Triton-X in PBS for 10 minutes and rinsed once with TBS (10 mM Tris [pH 7.5], 150 mM NaCl). The permeabilized sample was blocked with 10% goat serum in TTBS (0.1% Tween-20 in TBS) for 30-60 minutes and washed once with TTBS. The microtubule network was probed with anti-tubulin antibody (Santa Cruz cat #sc-32293) in 1% goat serum in TTBS for 30-60 minutes at room temperature followed by washing in TTBS for 10 minutes. Alexa Fluor anti-mouse antibody (Invitrogen, cat #A-11005) was used as the secondary antibody to visualize the microtubule network using the 60× lens of a confocal microscope.

OCI-LY3 cells = experiment: Mitomycin C dose-response with JAK2 inhibitor TG101348 (CellTiter-Glo); format: cell-based, human; conditions: mitomycin C with TG101348 at 0.2, 0.4, 0.6 uM, 48 hrs
Procedure: The JAK2-selective inhibitor TG101348 and Mitomycin C was purchased from Selleckchem and Tocris Bioscience respectively and were and dissolved in DMSO. OCI-LY3 cells were treated with the indicated compounds in 96-well plates and there growth was determined using the CellTiter-Glo Luminescent Cell Viability Assay (Promega Corp). Typically, 30,000 OCI-Ly3 cells per well in 200 μL of growth medium were grown for 48 hrs in the presence or absence (DMSO alone) of the desired compounds, and then assayed with CellTiter Glo according to manufacturer's instructions.

O=C(O)c1cc(/N=N/c2ccc(S(=O)(=O)Nc3ccccn3)cc2)ccc1O [sulfasalazine]
GSH levels (U-2932 cells [1]): reduces the levels of active GSH compared to control | GSH levels (U-2932 cells [1]; listed as Sulfasalazine): depletion of GSH levels | IC50 (U-2932 cells [2]): 1000 µM | lipid-ROS levels (U-2932 cells [3]): significantly increases the levels of lipid-ROS; also recorded: induce lipid-ROS accumulation

CN(C)c1nc(N(C)C)nc(N(C)C)n1 [altretamine]
GSH levels (U-2932 cells [1]): indistinguishable from the control; also recorded: did not deplete GSH levels | GPX4 activity (residual PC-OOH signal) (GPX4): decreases the activity of GPX4; also recorded: displayed a significant [PC—OOH+H^+] signal | lipid-ROS levels (U-2932 cells [3]): significantly increases the levels of lipid-ROS; also recorded: induce lipid-ROS accumulation

CC[C@]1(O)C[C@H]2CN(CCc3c([nH]c4ccccc34)[C@@](C(=O)OC)(c3cc4c(cc3OC)N(C=O)[C@H]3[C@@](O)(C(=O)OC)[C@H](OC(C)=O)[C@]5(CC)C=CCN6CC[C@]43[C@@H]65)C2)C1 [vincristine]
change of vincristine sensitivity after CCNB1 silencing (U-2-OS cells [4]; siRNA targeting CCNB1, 48 hrs vincristine): reduces the cell sensitivity; also recorded: had the opposite effect | change of vincristine sensitivity after RPS3A silencing (U-2-OS cells [4]; siRNA targeting RPS3A, 48 hrs vincristine): reduces the cell sensitivity; also recorded: had the opposite effect | change of vincristine sensitivity after VHL silencing (U-2-OS cells [4]; siRNA targeting VHL, 48 hrs vincristine): increases the sensitivity two-folds; also recorded: more than two-fold | effect on microtubule network (U-2-OS cells [5]): significantly altered microtubule network

Cc1cnc(Nc2ccc(OCCN3CCCC3)cc2)nc1Nc1cccc(S(=O)(=O)NC(C)(C)C)c1 [TG101348]
effect of JAK2 inhibition on mitomycin C activity (percent cell inhibition) (OCI-LY3 cells): significant, dose-dependent antagonism

CO[C@@]12[C@H](COC(N)=O)C3=C(C(=O)C(C)=C(N)C3=O)N1C[C@@H]1N[C@@H]12 [mitomycin C]
effect of JAK2 inhibition on mitomycin C activity (percent cell inhibition) (OCI-LY3 cells): reduction in the sensitivity of the cells; also recorded: significant, dose-dependent antagonism
